From patent US10117944B2, “Targeted therapeutics” (Madrigal Pharmaceuticals, Inc., priority 2014, dated 2018)

How the values were obtained:
[1] = Stability of SDC-TRAPs in mouse plasma; type: in vitro ADME; conditions: 37° C.
Procedure: SDC-TRAPs were incubated in mouse plasma for 1 h at 37° C. and assayed for integrity at 0, 0.25, 0.5 and 1 h to assess the stability of the SDC-TRAP, e.g., as compared to the effector and targeting compounds. Compound stability was determined using […].

HER2 = HER2 degradation assay with BT-474 cell line; type: cell-based, human; conditions: BT-474 cells, overnight incubation
Procedure: BT-474 cells (human breast cancer cell line ATCC HTB-20) were obtained from ATCC and seeded into 12-well tissue culture plates at 0.2×10^6/1.8 mL/well. The cells were incubated for more than 6 hours at 37° C. in DMEM+10% FBS, +1% P/S, +1.5 g/L sodium bicarbonate. […] The DMSO final concentration was 0.2%. Cells were incubated overnight at 37° C. in 5% CO2.
Media was decanted from the plate, cells were washed 1× in PBS. 400 μL trypsin (EDTA) per well was added, and the cells were incubated for 2 to 3 minutes. Cells were collected into FACS tubes containing 1 ml culture medium to neutralize the trypsin and were centrifuged for 5 minutes at 1200 rpm. Supernatant was decanted and the cells were resuspended in 5 μL FITC (anti HER2/nu)/200 μL staining buffer (1×PBS+1% FBS+0.05% Sodium Azide)/tube. Controls were 5 μL IgG isotype control and staining buffer only. Tubes were incubated for 30 minutes in the dark at room temperature. 1 mL staining buffer was added to each tube and the tubes were centrifuged for 6 minutes at 1200 rpm. The supernatant was decanted and 300 μL staining buffer was added to each tube, which was stored at 4° C. for FACS (cytometer) analysis. The cytometer readout was normalized and the potency of each compound was evaluated with IC50 calculated with XLfit™ software.

[2] = estimated; cited from earlier work
[3] = phase I trial; cited from earlier work

| SMILES | % Remaining (1 h) [1] [%] | IC50 (HER2) [µM] | Patients presenting with peripheral neuropathy [2] | Dose at which dose-limiting toxic effects are observed [3] [mg/m^2] |
| --- | --- | --- | --- | --- |
| CCNC(=O)c1nnc(-c2cc(C(C)C)c(O)cc2O)n1-c1ccc(C(=O)N(C)CC[C@]23OB([C@H](CC(C)C)NC(=O)[C@H](Cc4ccccc4)NC(=O)c4cnccn4)O[C@H]2C[C@H]2C[C@@H]3C2(C)C)cc1 [SDC-TRAP-0244, N—((S)-1-(((R)-1-((3aR,4R,6R,7aS)-3a-(2-(4-(3-(2,4-dihydroxy-5-isopropylphenyl)-5-(ethylcarbamoyl)-4H-1,2,4-triazol-4-yl)-N-methylbenzamido)ethyl)-5,5-dimethylhexahydro-4,6-methanobenzo[d][1,3,2]dioxaborol-2-yl)-3-methylbutyl)amino)-1-oxo-3-phenylpropan-2-yl)pyrazine-2-carboxamide] | 62.9 | 0.1 |  |  |
| CCNC(=O)c1nnc(-c2cc(C(C)C)c(O)cc2O)n1-c1ccc(Oc2ccc(C(=O)NCCCCCCC3(C)OB([C@H](CC(C)C)NC(=O)[C@H](Cc4ccccc4)NC(=O)c4cnccn4)OC3(C)C)cc2)cc1 (stereo partly drawn) [SDC-TRAP-0246, N-((2S)-1-(((1R)-1-(4-(6-(4-(4-(3-(2,4-dihydroxy-5-isopropylphenyl)-5-(ethylcarbamoyl)-4H-1,2,4-triazol-4-yl)phenoxy)benzamido)hexyl)-4,5,5-trimethyl-1,3,2-dioxaborolan-2-yl)-3-methylbutyl)amino)-1-oxo-3-phenylpropan-2-yl)pyrazine-2-carboxamide] | 63.6 | 0.11 |  |  |
| CCNC(=O)c1nnc(-c2cc(C(C)C)c(O)cc2O)n1-c1ccc(C(=O)NCCCCCCC2(C)OB([C@H](CC(C)C)NC(=O)[C@H](Cc3ccccc3)NC(=O)c3cnccn3)OC2(C)C)cc1 (stereo partly drawn) [SDC-TRAP-0247, N-((2S)-1-(((1R)-1-(4-(6-(4-(3-(2,4-dihydroxy-5-isopropylphenyl)-5-(ethylcarbamoyl)-4H-1,2,4-triazol-4-yl)benzamido)hexyl)-4,5,5-trimethyl-1,3,2-dioxaborolan-2-yl)-3-methylbutyl)amino)-1-oxo-3-phenylpropan-2-yl)pyrazine-2-carboxamide] | 11.8 | 0.036 |  |  |
| CCNC(=O)c1nnc(-c2cc(C(C)C)c(O)cc2O)n1-c1ccc(Oc2ccc(C(=O)NCC[C@]34OB([C@H](CC(C)C)NC(=O)[C@H](Cc5ccccc5)NC(=O)c5cnccn5)O[C@H]3C[C@@H]3C[C@H]4C3(C)C)cc2)cc1 [SDC-TRAP-0248, N—((S)-1-(((R)-1-((3aR,4S,6S,7aS)-3a-(2-(4-(4-(3-(2,4-dihydroxy-5-isopropylphenyl)-5-(ethylcarbamoyl)-4H-1,2,4-triazol-4-yl)phenoxy)benzamido)ethyl)-5,5-dimethylhexahydro-4,6-methanobenzo[d][1,3,2]dioxaborol-2-yl)-3-methylbutyl)amino)-1-oxo-3-phenylpropan-2-yl)pyrazine-2-carboxamide] | 54.8 | 0.037 |  |  |
| CCNC(=O)c1nnc(-c2cc(C(C)C)c(O)cc2O)n1-c1ccc(Oc2ccc(C(=O)N3CCC4(CC3)OB([C@H](CC(C)C)NC(=O)[C@H](Cc3ccccc3)NC(=O)c3cnccn3)OC4(C)C)cc2)cc1 [SDC-TRAP-0249, N—((S)-1-(((R)-1-(8-(4-(4-(3-(2,4-dihydroxy-5-isopropylphenyl)-5-(ethylcarbamoyl)-4H-1,2,4-triazol-4-yl)phenoxy)benzoyl)-4,4-dimethyl-1,3-dioxa-8-aza-2-boraspiro[4.5]decan-2-yl)-3-methylbutyl)amino)-1-oxo-3-phenylpropan-2-yl)pyrazine-2-carboxamide] | 8.93 | 0.036 |  |  |
| CC(C)C[C@H](NC(=O)[C@H](Cc1ccccc1)NC(=O)c1cnccn1)B1OC(C)(C)C2(CCN(C(=O)CCn3ccc4cc(-n5c(O)nnc5-c5cc(C(C)C)c(O)cc5O)ccc43)CC2)O1 [SDC-TRAP-0250, N—((S)-1-(((R)-1-(8-(3-(5-(3-(2,4-dihydroxy-5-isopropylphenyl)-5-hydroxy-4H-1,2,4-triazol-4-yl)-1H-indol-1-yl)propanoyl)-4,4-dimethyl-1,3-dioxa-8-aza-2-boraspiro[4.5]decan-2-yl)-3-methylbutyl)amino)-1-oxo-3-phenylpropan-2-yl)pyrazine-2-carboxamide] | 27.0 | 2.12 |  |  |
| CCNC(=O)c1nnc(-c2cc(C(C)C)c(O)cc2O)n1-c1ccc(C(=O)N2CCC3(CC2)OB([C@H](CC(C)C)NC(=O)[C@H](Cc2ccccc2)NC(=O)c2cnccn2)OC3(C)C)cc1 [SDC-TRAP-0251, N—((S)-1-(((R)-1-(8-(4-(3-(2,4-dihydroxy-5-isopropylphenyl)-5-(ethylcarbamoyl)-4H-1,2,4-triazol-4-yl)benzoyl)-4,4-dimethyl-1,3-dioxa-8-aza-2-boraspiro[4.5]decan-2-yl)-3-methylbutyl)amino)-1-oxo-3-phenylpropan-2-yl)pyrazine-2-carboxamide] | 13.4 | > 5 |  |  |
| CC(C)C[C@H](NC(=O)[C@H](Cc1ccccc1)NC(=O)c1cnccn1)B(O)O [bortezomib] |  |  | more than 40% | 1.5 |
